The results in this text go back to patent US9718828B2 (MERCK SHARP & DOHME CORP., priority 2011, dated 2017).

Where a name gives a salt, the structure may show the parent alone.

Chain of Btk enzyme (His-Btk) (Q06187 whole entry): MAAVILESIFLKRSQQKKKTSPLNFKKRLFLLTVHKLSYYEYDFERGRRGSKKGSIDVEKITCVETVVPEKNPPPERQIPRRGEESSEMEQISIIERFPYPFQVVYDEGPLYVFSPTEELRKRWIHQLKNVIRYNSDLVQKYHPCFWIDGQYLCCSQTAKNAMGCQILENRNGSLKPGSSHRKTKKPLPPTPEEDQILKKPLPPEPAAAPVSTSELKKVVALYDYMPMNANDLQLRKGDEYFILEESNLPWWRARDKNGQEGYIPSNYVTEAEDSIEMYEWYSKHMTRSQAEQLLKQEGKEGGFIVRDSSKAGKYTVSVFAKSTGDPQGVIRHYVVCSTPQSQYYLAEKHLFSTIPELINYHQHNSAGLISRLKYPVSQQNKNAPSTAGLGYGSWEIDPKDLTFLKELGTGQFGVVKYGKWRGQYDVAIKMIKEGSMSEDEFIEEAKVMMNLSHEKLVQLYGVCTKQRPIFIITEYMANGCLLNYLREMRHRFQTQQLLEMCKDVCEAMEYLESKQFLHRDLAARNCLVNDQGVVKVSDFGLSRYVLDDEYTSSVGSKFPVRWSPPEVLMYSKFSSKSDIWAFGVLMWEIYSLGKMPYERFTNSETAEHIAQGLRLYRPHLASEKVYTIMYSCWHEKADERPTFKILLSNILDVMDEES

One assay concerns the target Btk enzyme (His-Btk) (Homo sapiens (Human), UniProt Q06187). The experiment in a line: Btk enzyme activity, IMAP fluorescence polarization assay (Assay Method A).
Conditions: not given
Molecule `CCc1cnc(NC(=O)c2ccc(-c3nc([C@H]4CC[C@@H](OC)CC4)n4ccnc(N)c34)cc2)s1` [Example 39, 4-(8-amino-3-((cis)-4-methoxycyclohexyl)imidazo [1,5-a]pyrazin-1-yl)-N-(5-ethylthiazol-2-yl)benzamide] returned an EC50 of 10 to 100 nM.

In turn, `COCCCNC(=O)c1cnc(N)c2c(-c3ccc(C(=O)Nc4cc(C(F)(F)F)ccn4)cc3)nc(C)n12` [Example 291, 8-amino-N-(3-methoxypropyl)-3-methyl-1-(4-(4-(trifluoromethyl)pyridin-2-ylcarbamoyl)phenyl)imidazo[1,5-a]pyrazine-5-carboxamide] showed an EC50 of 100 to 1000 nM.

Consider `Nc1nccn2c(C3CCOCC3)nc(-c3ccc(C(=O)Nc4ccccn4)cc3)c12` [Example 27, 4-(8-amino-3-(tetrahydro-2H-pyran-4-yl)imidazo[1,5-a]pyrazin-1-yl)-N-(pyridin-2-yl)benzamide], for which the EC50 lay within 10 to 100 nM.

For `CC(C)CNC(=O)C(=O)N1CCC[C@@H](c2nc(-c3ccc(C(=O)Nc4cc(C5CC5)ccn4)cc3)c3c(N)nccn23)C1` [Example 112, (R)-4-(8-amino-3-(1-(2-(isobutylamino)-2-oxoacetyl)piperidin-3-yl)imidazo[1,5-a]pyrazin-1-yl)-N-(4-cyclopropylpyridin-2-yl)benzamide], the EC50 was in the range of 10 to 100 nM.

`COCCC(=O)N1CCC[C@@H](c2nc(-c3ccc(C(=O)Nc4ccccn4)cc3)c3c(N)nccn23)C1` [Example 50, (R)-4-(8-amino-3-(1-(3-methoxypropanoyl)piperidin-3-yl)imidazo[1,5-a]pyrazin-1-yl)-N-(pyridin-2-yl)benzamide]: the EC50 is under 10 nM.

The molecule `CC1(C(=O)N2CCC[C@@H](c3nc(-c4ccc(C(=O)Nc5cc(C(F)(F)F)ccn5)cc4)c4c(N)ncc(C5=CCOCC5)n34)C2)COC1` [Example 322, (R)-4-(8-amino-5-(3,6-dihydro-2H-pyran-4-yl)-3-(1-(3-methyloxetane-3-carbonyl)piperidin-3-yl)imidazo[1,5-a]pyrazin-1-yl)-N-(4-(trifluoromethyl)pyridin-2-yl)benzamide] displayed an EC50 of 10 to 100 nM.

For the molecule `COC(=O)c1cnc(N)c2c(-c3ccc(C(=O)Nc4cc(C(F)(F)F)ccn4)cc3)nc(C)n12` [Example 312, methyl 8-amino-3-methyl-1-(4-(4-(trifluoromethyl)pyridin-2-ylcarbamoyl)phenyl)imidazo[1,5-a]pyrazine-5-carboxylate], the EC50 was 10 to 100 nM.

For the molecule `Nc1nccn2c([C@@H]3CCCN(CCC(F)(F)F)C3)nc(-c3ccc(C(=O)Nc4ccccn4)cc3)c12` [Example 136, (R)-4-(8-amino-3-(1-(3,3,3-trifluoropropyl)piperidin-3-yl)imidazo[1,5-a]pyrazin-1-yl)-N-(pyridin-2-yl)benzamide TFA salt], the EC50 lay within 10 to 100 nM.

The molecule `CCN1CCC[C@@H](c2nc(-c3ccc(C(=O)Nc4cc(C(F)(F)F)ccn4)cc3)c3c(N)nccn23)C1` [Example 138, (R)-4-(8-amino-3-(1-ethylpiperidin-3-yl)imidazo[1,5-a]pyrazin-1-yl)-N-(4-(trifluoromethyl)pyridin-2-yl)benzamide, TFA salt] returned an EC50 of 10 to 100 nM.

Molecule `CC(C)(C#N)C(=O)N1CCC[C@@H](c2nc(-c3ccc(C(=O)Nc4ccccn4)cc3)c3c(N)nccn23)C1` [Example 108, (R)-4-(8-amino-3-(1-(2-cyano-2-methylpropanoyl)piperidin-3-yl)imidazo[1,5-a]pyrazin-1-yl)-N-(pyridin-2-yl)benzamide] registered an EC50 of 10 to 100 nM.

Turning to `CC(C)C(=O)N1CCC2(CC1)CC2c1nc(-c2ccc(C(=O)Nc3ccccn3)cc2)c2c(N)nccn12` (stereo not shown) [Example 150, 4-(8-amino-3-(6-isobutyryl-6-azaspiro[2.5]octan-1-yl)imidazo[1,5-a]pyrazin-1-yl)-N-(pyridin-2-yl) benzamidee], the EC50 is 100 to 1000 nM.

Consider `Nc1nccn2c1c(-c1ccc(C(=O)Nc3ccccn3)c3ccccc13)nc2[C@H]1CC[C@H](O)CC1` [Example 22, 4-(8-amino-3-((trans)-4-hydroxycyclohexyl)imidazo[1,5-a]pyrazin-1-yl)-N-(pyridin-2-yl)-1-naphthamide], for which the EC50 lay in the range of 100 to 1000 nM.

The molecule `COCCC(=O)N1CCC[C@@H](c2nc(-c3ccc(C(=O)Nc4ccccn4)cc3C)c3c(N)nccn23)C1` [Example 285, 4-(8-amino-3-((R)-1-(3-methoxypropanoyl)piperidin-3-yl)imidazo[1,5-a]pyrazin-1-yl)-3-methyl-N-(pyridin-2-yl)benzamide, TFA salt] gave a concentration giving a half-maximal response (EC50) of 10 to 100 nM.

Staying with this assay, now noted: read-out: EC50 Btk activity values - Assay Method A; IMAP-FP, 60 min pre-incubation, 5 μM ATP; class 100-1000 is given as ≧100 nM-<1 μM.
For the molecule `Nc1nccn2c(N3CCOCC3)nc(-c3ccc(C(=O)Nc4cc(C(F)(F)F)ccn4)cc3)c12` [Example 211, 4-(8-amino-3-morpholinoimidazo[1,5-a]pyrazin-1-yl)-N-(4-(trifluoromethyl)pyridin-2-yl)benzamide], the EC50 was under 10 nM.

Consider `CCCc1ccnc(NC(=O)c2ccc(-c3nc([C@H]4CC[C@H](O)CC4)n4ccnc(N)c34)c(C)c2)c1` [Example 10, 4-(8-amino-3-((trans)-4-hydroxycyclohexyl)imidazo[1,5-a]pyrazin)-3-methyl-N-(4-propylpyridin-2-yl)benzamide], for which the EC50 is under 10 nM.

With `COCCOCCOCCOCCC(=O)N1CCC[C@@H](n2nc(-c3ccc(C(=O)Nc4cc(C(F)(F)F)ccn4)cc3)c3c(N)ncnc32)C1` [Example 264, (R)-4-(1-(1-2,5,8,11-tetraoxatetradecanepiperidin-3-yl)-4-amino-1H-pyrazolo[3,4-d]pyrimidin-3-yl)-N-(4-(trifluoromethyl)pyridin-2-yl)benzamide], the EC50 was under 10 nM.

Consider `CC(C)C(=O)N1C[C@H](c2nc(-c3ccc(C(=O)Nc4ccccn4)cc3)c3c(N)nccn23)CC[C@@H]1C` (relative stereo) [Example 205, 4-(8-amino-3-((cis)-1-isobutyryl-6-methylpiperidin-3-yl)imidazo[1,5-a]pyrazin-1-yl)-N-(pyridin-2-yl)benzamide, TFA salt], for which the EC50 is under 10 nM.

Regarding `CCNC(=O)N1CCCC(c2cc(-c3ccc(C(=O)Nc4cc(C(F)(F)F)ccn4)cc3)c3c(N)ncnn23)C1` (stereo not shown) [Example 252, 3-(4-amino-5-(4-(4-(trifluoromethyl)pyridin-2-ylcarbamoyl)phenyl)pyrrolo[1,2-f][1,2,4]triazin-7-yl)-N-ethylpiperidine-1-carboxamide], the EC50 is under 10 nM.

With `CC(C)C(=O)N[C@H]1CCC[C@@H](c2nc(-c3ccc(C(=O)Nc4cc(C(F)(F)F)ccn4)cc3)c3c(N)nccn23)C1` (relative stereo) [Example 159, 4-(8-amino-3-((cis)-3-isobutyramidocyclohexyl)imidazo [1,5-a]pyrazin-1-yl)-N-(4-(trifluoromethyl)pyridin-2-yl)benzamide], the EC50 was under 10 nM.

Turning to `Nc1nccn2c(N3CCCC(C(=O)NCC4CC4)C3)nc(-c3ccc(C(=O)Nc4cc(C5CC5)ccn4)cc3)c12` (stereo not shown) [Example 245, 1-(8-amino-1-(4-(4-cyclopropylpyridin-2-ylcarbamoyl)phenyl)imidazo[1,5-a]pyrazin-3-yl)-N-(cyclopropylmethyl)piperidine-3-carboxamide, TFA salt], the EC50 is under 10 nM.

With `CCOCCC(=O)N1CCC[C@@H](c2nc(-c3ccc(C(=O)Nc4cc(C(F)(F)F)ccn4)cc3)c3c(N)ncnn23)C1` [Example 259, (R)-4-(4-amino-7-(1-(3-ethoxypropanoyl)piperidin-3-yl)imidazo[1,5-f][1,2,4]triazin-5-yl)-N-(4-(trifluoromethyl)pyridin-2-yl)benzamide], the EC50 is under 10 nM.

Take `Nc1nccn2c([C@H]3[C@@H]4COC[C@@H]43)nc(-c3ccc(C(=O)Nc4cc(C(F)(F)F)ccn4)cc3)c12` [Example 31, 4-(8-amino-34(1R,5S,6S)-3-oxabicyclo[3.1.0]hexan-6-yl)imidazo[1,5-a]pyrazin-1-yl)-N-(4-(trifluoromethyl)pyridin-2-yl)benzamide, TFA salt]: the EC50 is under 10 nM.

As to `CCCc1ccnc(NC(=O)c2ccc(-c3nc([C@H]4[C@@H]5COC[C@@H]54)n4ccnc(N)c34)cc2)c1` [Example 30, 4-(8-amino-3-((1R,5S,6S)-3-oxabicyc1o[3.1.0]hexan-6-yl)imidazo[1,5-a]pyrazin-1-yl)-N-(4-propylpyridin-2-yl)benzamide, TFA salt], the EC50 was under 10 nM.

In the case of `Cn1cc(CN2CCC[C@@H](c3nc(-c4ccc(C(=O)Nc5ccccn5)cc4)c4c(N)nccn34)C2)cn1` [Example 135, (R)-4-(8-amino-3-(1-((1-methyl-1H-pyrazol-4-yl)methyl)piperidin-3-yl)imidazo[1,5-a]pyrazin-1-yl)-N-(pyridin-2-yl)benzamide, TFA salt], the EC50 was under 10 nM.

As to `CS(=O)(=O)CCNC(=O)C1CCCN(c2nc(-c3ccc(C(=O)Nc4cc(C(F)(F)F)ccn4)cc3)c3c(N)nccn23)C1` (stereo not shown) [Example 240, 1-(8-amino-1-(4-(4-(trifluoromethyl)pyridin-2-ylcarbamoyl)phenyl)imidazo[1,5-a]pyrazin-3-yl)-N-(2-(methylsulfonyl)ethyl)piperidine-3-carboxamide, TFA salt], the EC50 was under 10 nM.

With `C[C@H]1CC[C@@H](c2nc(-c3ccc(C(=O)Nc4cc(C5CC5)ccn4)cc3)c3c(N)nccn23)CN1C(=O)C1CCC1` (relative stereo) [Example 197, 4-(8-amino-3-((cis)-1-(cyclobutanecarbonyl)-6-methylpiperidin-3-yl)imidazo[1,5-a]pyrazin-1-yl)-N-(4-cyclopropylpyridin-2-yl)benzamide, TFA salt], the EC50 was under 10 nM.

Consider `CCOC(=O)N1CCC[C@@H](c2nc(-c3ccc(C(=O)Nc4cc(C(F)(F)F)ccn4)cc3)c3c(N)ncnn23)C1` [Example 255, (R)-ethyl 3-(4-amino-5-(4-(4-(trifluoromethyl)pyridin-2-ylcarbamoyl)phenyl)imidazo[1,5-f][1,2,4]triazin-7-yl)piperidine-1-carboxylate], for which the EC50 is under 10 nM.

For the molecule `Nc1nccn2c(N3CCC[C@H](NC(=O)C4CCC4)C3)nc(-c3ccc(C(=O)Nc4cc(C(F)(F)F)ccn4)cc3)c12` [Example 223, (S)-4-(8-amino-3-(3-(cyclobutanecarboxamido)piperidin-1-yl)imidazo[1,5-a]pyrazin-1-yl)-N-(4-(trifluoromethyl)pyridin-2-yl)benzamide], the EC50 was under 10 nM.
